In publication PMC4923880, “Urbilaterian origin of paralogous GnRH and corazonin neuropeptide signalling pathways” (Scientific Reports, 2016):
Square brackets hold non-standard residues; d marks the D form. Ends that are not written are not given here. Peptide text beside a SMILES is read from it. pGlu = O=C1CC[C@@H](C(=O)O)N1

Experiments:
[1] = target: ArGnRHR (Asterias rubens, UniProt A0A1B0YGS0); test: Bioluminescence (Ca2+) receptor activation assay, ArGnRHR in CHO-K1 cells with aequorin and Gα16; assay type: cell-based; details: for activation of ArGnRHR (bioluminescence response, in words) / activation of ArGnRHR by other GnRH/CRZ-type or starfish neuropeptides (in words): CHO-K1/aequorin/Gα16 cells; for activation of ArGnRHR (bioluminescence response, in words): concentrations 10^−4 M to 10^−14 M, peptide 2 over the same concentration range as peptide 1; for activation of ArGnRHR by other GnRH/CRZ-type or starfish neuropeptides (in words): 10 μM, Supplementary Figure S8
From the text: (§1) ArGnRHR and ArCRZR were cloned as described previously[23] and the positions of the primers used are indicated in Supplementary Figures S1 and S2. Next, the ORF of ArGnRHR was amplified using the oligos 5′-aagcttCACCATGGCGACTACATC-3′ and 5′-ctcgagTTATACACATTTCTCAG-3′ and subcloned into the eukaryotic expression vector pcDNA 3.1+ (Invitrogen) that was cut with HindIII and XhoI; The ORF of ArCRZR was amplified using the oligos 5′- gatatcCACCATGAGTGTTCAAT-3′ and 5′-tctagaTCAGGTTGTTGTTGTGA-3′ and subcloned into pcDNA 3.1+ that was cut with EcoRV and XbaI. A partial Kozak translation initiation sequence (CACC) was also introduced in the upstream primer. Chinese hamster ovary (CHO)-K1 cells stably overexpressing the human Gα16 protein and mitochondrial targeted apo-aequorin were used as a heterologous expression system to functionally characterize the receptors. Cells were cultured, transfected and a bioluminescence assay performed as described previously. The A. rubens neuropeptides pQIHYKNPGWGPG-NH2 and HNTFTMGGQNRWKAG-NH2 were custom synthesized by PPR Ltd (Fareham, UK) and were tested as candidate ligands for ArGnRHR and ArCRZR at concentrations ranging from 10^−4 M to 10^−14 M. Ca^2+ responses were normalized to the total Ca^2+ response monitored after addition of Triton X-100 (0.1%). Dose–response data were determined as a % of the highest response (100% activation). EC50 values were calculated from dose–response curves based on at least three independent transfections (Prism 6.0). Other GnRH/CRZ-type neuropeptides (Drosophila AKH and Drosophila AKH) and other starfish neuropeptides (NGFFYamide, SALMFamide-1 and SALMFamide-2[16][24]) were also tested (at 10 μM) to assess the specificity of receptor activation.

[2] = target: ArCRZR (Asterias rubens, UniProt A0A1B0YGT7); test: Bioluminescence (Ca2+) receptor activation assay, ArCRZR in CHO-K1 cells with aequorin and Gα16; assay type: cell-based; details: for activation of ArCRZR by other GnRH/CRZ-type or starfish neuropeptides (in words): 10 μM, Supplementary Figure S8
From the text: as §1

[3] = test system: cells transfected with an empty vector; test: Bioluminescence assay, cells transfected with an empty vector (control); assay type: cell-based, Chinese hamster; details: data not shown
From the text: as §1, with “Chinese hamster ovary (CHO)-K1 cells stably overexpressing the human Gα16 protein and mitochondrial targeted apo-aequorin were used as a heterologous expression system to functionally characterize the receptors. Cells were cultured, transfected and a bioluminescence assay performed as described previously.” left out, “Other GnRH/CRZ-type neuropeptides (Drosophila AKH and Drosophila AKH) and other starfish neuropeptides (NGFFYamide, SALMFamide-1 and SALMFamide-2[16][24]) were also tested (at 10 μM) to assess the specificity of receptor activation.” left out

[4] = test system: CRZ-type receptor; details: one of two CRZ-type receptors; ref [14]; cited from earlier work
From the text: (§2) It is not known, however, if this predicted mature peptide actually exists in B. floridae. […] Thus, it remains to be established whether or not distinct GnRH-type and CRZ-type signalling pa ...

[5] = test system: GnRH-type receptors; details: two GnRH-type receptors; ref [14]; cited from earlier work
From the text: as §2

Sequence of ArCRZR (A0A1B0YGT7 entry or part of it): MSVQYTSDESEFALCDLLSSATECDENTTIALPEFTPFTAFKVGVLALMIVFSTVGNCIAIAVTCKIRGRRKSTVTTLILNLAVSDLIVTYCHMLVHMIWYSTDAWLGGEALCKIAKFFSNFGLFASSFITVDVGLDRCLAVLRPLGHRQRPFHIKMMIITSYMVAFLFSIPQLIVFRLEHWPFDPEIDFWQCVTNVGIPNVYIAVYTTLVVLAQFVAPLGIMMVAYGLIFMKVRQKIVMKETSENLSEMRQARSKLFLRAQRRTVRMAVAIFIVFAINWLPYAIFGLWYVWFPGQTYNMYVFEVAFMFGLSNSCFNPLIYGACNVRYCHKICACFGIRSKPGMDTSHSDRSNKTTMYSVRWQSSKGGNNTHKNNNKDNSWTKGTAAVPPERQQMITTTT
Sequence of ArGnRHR (A0A1B0YGS0 entry or part of it): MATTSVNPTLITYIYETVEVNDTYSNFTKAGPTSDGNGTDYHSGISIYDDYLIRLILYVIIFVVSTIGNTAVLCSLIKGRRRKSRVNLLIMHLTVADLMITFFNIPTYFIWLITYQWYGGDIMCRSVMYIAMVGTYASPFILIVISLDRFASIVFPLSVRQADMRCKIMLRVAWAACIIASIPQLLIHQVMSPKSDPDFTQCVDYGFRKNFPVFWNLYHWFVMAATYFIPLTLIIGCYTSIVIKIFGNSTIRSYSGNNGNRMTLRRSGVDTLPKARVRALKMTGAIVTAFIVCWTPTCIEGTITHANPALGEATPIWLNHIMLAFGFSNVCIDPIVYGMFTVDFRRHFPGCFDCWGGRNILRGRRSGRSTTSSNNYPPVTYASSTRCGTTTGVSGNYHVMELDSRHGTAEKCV

## CC[C@H](C)[C@H](NC(=O)[C@@H]1CCC(=O)N1)C(=O)N[C@@H](Cc1c[nH]cn1)C(=O)N[C@@H](Cc1ccc(O)cc1)C(=O)N[C@@H](CCCCN)C(=O)N[C@@H](CC(N)=O)C(=O)N1CCC[C@H]1C(=O)NCC(=O)N[C@@H](Cc1c[nH]c2ccccc12)C(=O)NCC(=O)N1CCC[C@H]1C(=O)NCC(N)=O [peptide 1] ([pGlu]IHYKNPGWGPG-NH2)
[1]
  EC50: 0.603 nM
  activation of ArGnRHR (bioluminescence response, in words): dose-dependent activation
[1]; listed as Peptide 1
  activation of ArGnRHR (bioluminescence response, in words): dose-dependent stimulation of a bioluminescence response
[1]; listed as pQIHYKNPGWGPG-NH2
  activation of ArGnRHR (bioluminescence response, in words): specifically activates an A. rubens GnRH-type receptor
[2]; CHO-K1/aequorin/Gα16 cells, concentrations 10^−4 M to 10^−14 M, peptide 1 over a similar concentration range as peptide 2
  activation of ArCRZR (bioluminescence response, in words): no effect
[3]
  response of cells transfected with an empty vector (in words): Neither peptide 1 nor peptide 2 elicited any response

## CSCC[C@H](NC(=O)[C@@H](NC(=O)[C@H](Cc1ccccc1)NC(=O)[C@@H](NC(=O)[C@H](CC(N)=O)NC(=O)[C@@H](N)Cc1c[nH]cn1)[C@@H](C)O)[C@@H](C)O)C(=O)NCC(=O)NCC(=O)N[C@@H](CCC(N)=O)C(=O)N[C@@H](CC(N)=O)C(=O)N[C@@H](CCCNC(=N)N)C(=O)N[C@@H](Cc1c[nH]c2ccccc12)C(=O)N[C@@H](CCCCN)C(=O)N[C@@H](C)C(=O)NCC(N)=O [peptide 2] (H-HNTFTMGGQNRWKAG-NH2)
[2]
  EC50: 115 nM

## CRZ: other GnRH/CRZ-type peptide (Drosophila corazonin) (QTFQYSRGWTN; ends and bridges not checked; UniProt Q26377 20-30, looked up)
[1]
  activation of ArGnRHR by other GnRH/CRZ-type or starfish neuropeptides (in words): Neither receptor was activated
[2]; CHO-K1/aequorin/Gα16 cells
  activation of ArCRZR by other GnRH/CRZ-type or starfish neuropeptides (in words): Neither receptor was activated

## Drosophila AKH: other GnRH/CRZ-type peptide (Drosophila adipokinetic hormone) (QLTFSPDW; ends and bridges not checked; UniProt P61855 23-30, looked up)
[1]
  activation of ArGnRHR by other GnRH/CRZ-type or starfish neuropeptides (in words): Neither receptor was activated
[2]; CHO-K1/aequorin/Gα16 cells
  activation of ArCRZR by other GnRH/CRZ-type or starfish neuropeptides (in words): Neither receptor was activated

## NGFFYamide
[1]
  activation of ArGnRHR by other GnRH/CRZ-type or starfish neuropeptides (in words): Neither receptor was activated
[2]; CHO-K1/aequorin/Gα16 cells
  activation of ArCRZR by other GnRH/CRZ-type or starfish neuropeptides (in words): Neither receptor was activated

## pQILCARAFTYTHTW-NH2 [candidate neuropeptide in the cephalochordate Branchiostoma floridae]
[4]
  activation of B. floridae CRZ-type receptors (in words): activates one of two CRZ-type receptors
[5]
  activation of B. floridae GnRH-type receptors (in words): neither of two GnRH-type receptors
